IC50 data for 35 compounds are collected here from patent US10611731B2, “5-methyl-6-phenyl-4,5-dihydro-2H-pyridazin-3-one derivative” (OTSUKA PHARMACEUTICAL CO., LTD., priority 2016, dated 2020).

A value given as a limit tells only on which side of the number the result lay.

The test system of the assay is human childhood brain tumor cell lines (PFSK-1). As to the kind of experiment: Growth inhibitory activity against PFSK-1 cells (WST-8, Cell Counting Kit-8). The class given is cell-based. The note with it: Homo sapiens, 72 h, 3 days incubation with test compound, WST-8 OD 450/630 nm, read-out: IC50 (concentration inhibiting 50% of the cell growth). On the procedure:
The growth inhibitory activity against human childhood brain tumor cell lines (PFSK-1) was measured with WST-8 reagent [2-(2-methoxy-4-nitrophenyl)-3-(4-nitrophenyl)-5-(2,4-disulfophenyl)-2H-tetrazolium monosodium salt, Cell Counting Kit-8™], according to the method described in Tominaga, H. et al., Anal. Commun., 1999, 36, 47-50. Briefly, PFSK-1 was seeded in 96-well microplate at 100 μL/well with Roswell Park Memorial Institute (RPMI) 1640 medium containing 10% fetal bovine serum (FBS), and the cells were incubated in the presence of 5% carbon dioxide (CO2) at 37° C. for 24 hours. 50 μL of each test compound diluted with the medium was added to each well, and then the cells were incubated further for 3 days. After the incubation, 15 μL of Cell Counting Kit-8™ was added to each well, and the cells were incubated for one and half hours. Then, optical density (OD) values at measurement wavelength 450 nm and reference wavelength 630 nm were measured and the difference thereof was calculated. From the calculated difference, the OD value difference (at measurement wavelength 450 nm and reference wavelength 630 nm) of the control well which includes no cell was subtracted to afford cell-growth activity in each well.
The cell growth inhibitory activity of each test compound was calculated by comparing the cell-growth activity with each test compound to the cell-growth activity without any test compound (control), and each IC50 (nM) which is the concentration inhibiting 50% of the cell growth was calculated.
In general terms: Formazan colour is commonly taken as a measure of viable cells.

In the case of `Cc1c(OCC(C)O)ccc(C2=NNC(=O)CC2C)c1O` (centres unmarked) [Example 74, 6-[2-hydroxy-4-(2-hydroxypropoxy)-3-methylphenyl]-5-methyl-4,5-dihydro-2H-pyridazin-3-one], the IC50 came to 4.1 nM.
In the case of `CC(O)COc1ccc(C2=NNC(=O)CC2C)c(O)c1Cl` (centres unmarked) [Example 75, 6-[3-Chloro-2-hydroxy-4-(2-hydroxypropoxy)phenyl]-5-methyl-4,5-dihydro-2H-pyridazin-3-one] it was 3.2 nM; in that of `CC1CC(=O)NN=C1c1ccc(OC/C=C\CO)c(Cl)c1F` (centres unmarked) [Example 76, 6-{3-chloro-2-fluoro-4-[(Z)-4-hydroxy-2-butenyloxy]phenyl}-5-methyl-4,5-dihydro-2H-pyridazin-3-one], 2.7 nM; in that of `Cc1cc(C2=NNC(=O)CC2C)cc(Cl)c1OCCCCO` (centres unmarked) [Example 79, 6-[3-Chloro-4-(4-hydroxybutoxy)-5-methylphenyl]-5-methyl-4,5-dihydro-2H-pyridazin-3-one], 5.6 nM.
For `CC1CC(=O)NN=C1c1cc(F)c(OCCCCO)c(Br)c1` (centres unmarked) [Example 80, 6-[3-Bromo-5-fluoro-4-(4-hydroxybutoxy)phenyl]-5-methyl-4,5-dihydro-2H-pyridazin-3-one] the value was 5.1 nM; for `CC1CC(=O)NN=C1c1cc(Cl)c(OCCCCO)c(Cl)c1` (centres unmarked) [Example 81, 6-[3,5-Dichloro-4-(4-hydroxybutoxy)phenyl]-5-methyl-4,5-dihydro-2H-pyridazin-3-one], 4.7 nM.
In the case of `CC1CC(=O)NN=C1c1ccc(OCCCCO)c(F)c1F` (centres unmarked) [Example 82, 6-[2,3-Difluoro-4-(4-hydroxybutoxy)phenyl]-5-methyl-4,5-dihydro-2H-pyridazin-3-one] it was 6 nM; in that of `Cc1c(OCCCCO)ccc(C2=NNC(=O)CC2C)c1F` (centres unmarked) [Example 83, 6-[2-Fluoro-4-(4-hydroxybutoxy)-3-methylphenyl]-5-methyl-4,5-dihydro-2H-pyridazin-3-one], 6.6 nM.
`CC1CC(=O)NN=C1c1ccc(OCCCCO)c(Cl)c1F` (centres unmarked) [Example 84, 6-[3-Chloro-2-fluoro-4-(4-hydroxybutoxy)phenyl]-5-methyl-4,5-dihydro-2H-pyridazin-3-one]: the IC50 came to 3.3 nM.
As to `C=Cc1c(OCCCO)ccc(C2=NNC(=O)CC2C)c1F` (centres unmarked) [Example 85, 6-[2-Fluoro-4-(3-hydroxypropoxy)-3-vinylphenyl]-5-methyl-4,5-dihydro-2H-pyridazin-3-one], the IC50 was 4 nM.
Turning to `Cc1cc(C2=NNC(=O)CC2C)cc(Cl)c1OC/C=C\CO` (centres unmarked) [Example 86, 6-{3-Chloro-4-[(Z)-4-hydroxy-2-butenyloxy]-5-methylphenyl}-5-methyl-4,5-dihydro-2H-pyridazin-3-one], the IC50 stood at 4.6 nM.
As for `CC1CC(=O)NN=C1c1ccc(OC/C=C/CO)c(Cl)c1F` (centres unmarked) [Example 90, 6-[3-Chloro-2-fluoro-4-[(E)-4-hydroxy-2-butenyloxy]phenyl}-5-methyl-4,5-dihydro-2H-pyridazin-3-one], the IC50 worked out at 3.9 nM.
As to `CC1CC(=O)NN=C1c1ccc(OCCCCCO)c(Cl)c1F` (centres unmarked) [Example 91, 6-[3-Chloro-2-fluoro-4-(5-hydroxypentoxy)phenyl]-5-methyl-4,5-dihydro-2H-pyridazin-3-one], the IC50 amounted to 6 nM.
In the case of `Cc1c(OC/C=C\CO)ccc(C2=NNC(=O)CC2C)c1F` (centres unmarked) [Example 92, 6-[2-Fluoro-4-[(Z)-4-hydroxy-2-butenyloxy]-3-methylphenyl]-5-methyl-4,5-dihydro-2H-pyridazin-3-one] it was 4.9 nM; in that of `CC1CC(=O)NN=C1c1ccc(OC/C=C\CO)c(F)c1F` (centres unmarked) [Example 93, 6-{2,3-Difluoro-4-[(Z)-4-hydroxy-2-butenyloxy]phenyl}-5-methyl-4,5-dihydro-2H-pyridazin-3-one], 3.1 nM; in that of `CC1CC(=O)NN=C1c1cc(F)c(OC/C=C\CO)c(Cl)c1` (centres unmarked) [Example 94, 6-{3-Chloro-5-fluoro-4-[(Z)-4-hydroxy-2-butenyloxy]phenyl}-5-methyl-4,5-dihydro-2H-pyridazin-3-one], 3 nM.
In the case of `CC1CC(=O)NN=C1c1cc(F)c(OC/C=C\CO)c(Br)c1` (centres unmarked) [Example 95, 6-{3-Bromo-5-fluoro-4-[(Z)-4-hydroxy-2-butenyloxy]phenyl}-5-methyl-4,5-dihydro-2H-pyridazin-3-one] it was 3 nM.
For the compound `C=Cc1c(OC/C=C\CO)ccc(C2=NNC(=O)CC2C)c1F` (centres unmarked) [Example 96, 6-{2-Fluoro-4-[(Z)-4-hydroxy-2-butenyloxy]-3-vinylphenyl}-5-methyl-4,5-dihydro-2H-pyridazin-3-one], the IC50 was 3.9 nM.
Turning to `CCc1c(OCCCCO)ccc(C2=NNC(=O)CC2C)c1F` (centres unmarked) [Example 97, 6-[3-Ethyl-2-fluoro-4-(4-hydroxybutoxy)phenyl]-5-methyl-4,5-dihydro-2H-pyridazin-3-one], the IC50 was 8.6 nM.
In the case of `Cc1cc(C2=NNC(=O)CC2C)cc(Cl)c1OCC(C)(C)CCO` (centres unmarked) [Example 98, 6-[3-chloro-4-(4-hydroxy-2,2-dimethylbutoxy)-5-methylphenyl]-5-methyl-4,5-dihydro-2H-pyridazin-3-one] it was 3.6 nM; in that of `CC1CC(=O)NN=C1c1cc(F)c(OCC(C)(C)CCO)c(Cl)c1` (centres unmarked) [Example 99, 6-[3-chloro-5-fluoro-4-(4-hydroxy-2,2-dimethylbutoxy)phenyl]-5-methyl-4,5-dihydro-2H-pyridazin-3-one], below 1 nM; in that of `CC1CC(=O)NN=C1c1cc(Cl)c(OCC(C)(C)CCO)c(Cl)c1` (centres unmarked) [Example 100, 6-[3,5-dichloro-4-(4-hydroxy-2,2-dimethylbutoxy)phenyl]-5-methyl-4,5-dihydro-2H-pyridazin-3-one], 1.6 nM.
In the case of `Cc1cc(C2=NNC(=O)CC2C)cc(F)c1OCC(C)(C)CCO` (centres unmarked) [Example 101, 6-[3-Fluoro-4-(4-hydroxy-2,2-dimethylbutoxy)-5-methylphenyl]-5-methyl-4,5-dihydro-2H-pyridazin-3-one] it was 7.5 nM; in that of `CC1CC(=O)NN=C1c1ccc(OCC(C)(C)CCO)c(F)c1F` (centres unmarked) [Example 102, 6-[2,3-Difluoro-4-(4-hydroxy-2,2-dimethylbutoxy)phenyl]-5-methyl-4,5-dihydro-2H-pyridazin-3-one], 3.4 nM; in that of `CC1CC(=O)NN=C1c1ccc(OCC(C)(C)CCO)c(Cl)c1F` (centres unmarked) [Example 103, 6-[3-Chloro-2-fluoro-4-(4-hydroxy-2,2-dimethylbutoxy)phenyl]-5-methyl-4,5-dihydro-2H-pyridazin-3-one], 2.6 nM.
Take `CC(O)COc1ccc(C2=NNC(=O)CC2C)c(F)c1C#N` (centres unmarked) [Example 104, 2-fluoro-6-(2-hydroxypropoxy)-3-(4-methyl-6-oxo-4,5-dihydro-1H-pyridazin-3-yl)benzonitrile]: the IC50 was determined as 5.2 nM.
In the case of `CC1CC(=O)NN=C1c1ccc(OCC(C)(C)O)c(C#N)c1F` (centres unmarked) [Example 105, 2-Fluoro-6-(2-hydroxy-2-methylpropoxy)-3-(4-methyl-6-oxo-4,5-dihydro-1H-pyridazin-3-yl)benzonitrile] it was 9 nM; in that of `CC1CC(=O)NN=C1c1ccc(OCCCO)c(C#N)c1F` (centres unmarked) [Example 106, 2-fluoro-6-(3-hydroxypropoxy)-3-(4-methyl-6-oxo-4,5-dihydro-1H-pyridazin-3-yl)benzonitrile], 6.4 nM.
In the case of `CC1CC(=O)NN=C1c1ccc(OCC(F)(F)CO)c(F)c1F` (centres unmarked) [Example 108, 6-[4-(2,2-Difluoro-3-hydroxypropoxy)-2,3-difluorophenyl]-5-methyl-4,5-dihydro-2H-pyridazin-3-one] it was 4.1 nM; in that of `CC1CC(=O)NN=C1c1cc(Cl)c(OCC(F)(F)CO)c(Cl)c1` (centres unmarked) [Example 109, 6-[3,5-dichloro-4-(2,2-difluoro-3-hydroxypropoxy)phenyl]-5-methyl-4,5-dihydro-2H-pyridazin-3-one], 1.6 nM.
For `CC1CC(=O)NN=C1c1ccc(OCC(F)(F)CO)c(Cl)c1F` (centres unmarked) [Example 110, 6-[3-Chloro-4-(2,2-difluoro-3-hydroxypropoxy)-2-fluorophenyl]-5-methyl-4,5-dihydro-2H-pyridazin-3-one] the value was 7.9 nM; for `CC1CC(=O)NN=C1c1cc(F)c(OCC(F)(F)CO)c(Cl)c1` (centres unmarked) [Example 111, 6-[3-Chloro-4-(2,2-difluoro-3-hydroxypropoxy)-5-fluorophenyl]-5-methyl-4,5-dihydro-2H-pyridazin-3-one], 3 nM; for `CC1CC(=O)NN=C1c1ccc(OCC(F)(F)CO)c(Br)c1F` (centres unmarked) [Example 112, 6-[3-bromo-4-(2,2-difluoro-3-hydroxypropoxy)-2-fluorophenyl]-5-methyl-4,5-dihydro-2H-pyridazin-3-one], 2.3 nM.
For the compound `Cc1cc(C2=NNC(=O)CC2C)cc(Cl)c1OCC(F)(F)CO` (centres unmarked) [Example 113, 6-[3-chloro-4-(2,2-difluoro-3-hydroxypropoxy)-5-methylphenyl]-5-methyl-4,5-dihydro-2H-pyridazin-3-one], the IC50 turned out to be 1.1 nM.
In the case of `C=Cc1c(OCC(F)(F)CO)ccc(C2=NNC(=O)CC2C)c1F` (centres unmarked) [Example 114, 6-[4-(2,2-Difluoro-3-hydroxypropoxy)-2-fluoro-3-vinylphenyl]-5-methyl-4,5-dihydro-2H-pyridazin-3-one] it was 3.3 nM.
